Measurements from publication PMC3600304, “Inhibitors of Fatty Acid Synthesis Induce PPARα-Regulated Fatty Acid β-Oxidative Genes: Synergistic Roles of L-FABP and Glucose” (PPAR Research, 2013).

What was measured:
L-FABP = target: T1, L-FABP (Rattus norvegicus, UniProt P02692); assay: Displacement of L-FABP-bound NBD-stearic acid; type: binding
T1 construct: made in house
T1 sequence (P02692 1-127): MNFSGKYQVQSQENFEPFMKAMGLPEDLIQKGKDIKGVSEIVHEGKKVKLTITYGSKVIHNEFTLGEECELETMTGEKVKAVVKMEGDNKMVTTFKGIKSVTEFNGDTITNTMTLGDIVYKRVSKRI
Experimental: (§1) Advantage was taken of the fact that NBD-stearic acid bound to L-FABP (two ligand binding sites) as well as SCP-2 (single-ligand binding site) to design a NBD-stearic acid displacement assay that allowed determination of which fatty acid synthesis inhibitors or their CoA thioesters bound to these LCFA/LCFA-CoA binding proteins. Displacement of NBD-stearate from L-FABP and SCP-2 was determined by incubating L-FABP or SCP-2 (25 nM in 10 mM phosphate buffer) with NBD stearate (40 nM) for 12 min to obtain maximal fluorescence, followed by titration with increasing amount of ligand. From the displacement curve, the K i value was calculated as described. All experiments were carried out with a thermostated cuvette to maintain temperature at 24°C using a circulating water bath. ANS displacement assay was performed as described.

SCP-2 = target: T2, SCP-2 (Homo sapiens, UniProt P22307); assay: Displacement of SCP-2-bound NBD-stearic acid; type: binding
T2 construct: made in house
T2 sequence (P22307 1-143 isoform P22307-2): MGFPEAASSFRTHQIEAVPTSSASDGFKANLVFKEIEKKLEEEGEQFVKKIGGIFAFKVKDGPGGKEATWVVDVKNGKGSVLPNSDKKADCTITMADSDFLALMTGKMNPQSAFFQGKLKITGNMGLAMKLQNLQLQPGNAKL
Experimental: as §1

recombinant rat L-FABP = target: T3, recombinant rat L-FABP (Rattus norvegicus, UniProt P02692); assay: L-FABP secondary structure by circular dichroism (CD); details: L-FABP 1 μM, ligand 10 μM
T3 construct: made in house
T3 sequence (P02692 1-127): T1 sequence (P02692 1-127)
Experimental: Circular dichroism (CD) spectra were obtained utilizing a JASCO J-815 CD spectrometer (JASCO Analytical Instruments, Easton, MD, USA). Each sample for CD analysis contained recombinant rat L-FABP (1 μM) in 10 mM potassium phosphate (pH 7.4) with or without ligand (10 μM). Samples were scanned from 190 to 250 nm using the following conditions: step resolution, 1 nm; bandwidth, 2 nm; sensitivity, 10 mdeg; scan rate, 50 nm/min; and time constant, 1 s. For each measurement, 10 scans were averaged, background-subtracted, smoothed using the Means-Movement smoothing method (convolution width, 5) and converted to mean residue molar ellipticity utilizing the Spectra Manager Version 2 software as supplied by the instrument manufacturer (Spectra Analysis Version 2.03.04, Build 5). The percentage composition of α-helices (regular, distorted, total), β-sheets (regular, distorted, total), turns, and unordered structures was determined utilizing the CDPro program as supplied by the instrument manufacturer using the SDP48 reference set (soluble + denatured protein). This program allows the percentage calculation of various secondary structures by three different methods: CDSSTR, CONTIN, and SELCON3. Statistical analysis was performed by one-way analysis of variance (ANOVA) combined with the Newman-Keuls multiple-comparisons posttest (GraphPad Prism Version 3.03, San Diego, CA, USA).

[1] = system: PPARα transcription of CPT1A, CPT2, ACOX1; assay: rtPCR of CPT1A, CPT2, ACOX1 mRNA in wild-type mouse primary hepatocytes; type: cell-based; details: inhibitor 10 μg/mL, 5 hr
Experimental: (§2) Mouse hepatocytes were isolated from livers of male wild-type and L-FABP null mice as described. To study the effect of TOFA and C75 at different glucose levels, mouse hepatocytes were cultured overnight with DMEM/F-12 supplemented with 5% FBS. Cells were incubated with glucose-free DMEM supplemented with fatty acid-free BSA (40 μM), 100 nM insulin, 10 nM dexamethasone, and without (no inhibitor) or with the de novo fatty acid synthesis inhibitors C75 or TOFA (10 μg/mL) for 30 min (1 mL/well). Cells were incubated further for 5 hr with 6 or 20 mM glucose without or with the inhibitors.
(§3) Transcription of key enzymes in mitochondrial (CPT1A and CPT2) and peroxisomal (ACOX1) β-oxidation of long chain fatty acid (LCFA) was determined by rtPCR similarly as described. Briefly, the RNeasy mini kit from Qiagen Sciences (MD, USA) was used as per the manufacturer's instructions to isolate total RNA, which was then quantified spectrophotometrically. Quantitative real-time PCR was performed with an ABI PRISM 7000 Sequence Detection System (SDS) from Applied Biosystems (Foster City, CA, USA) to determine relative mRNA expression for CPT1A, CPT2, and ACOX1. The thermal protocol was as follows: 48°C for 30 min, 95°C for 10 min before the first cycle, 95°C for 15 sec, and 60°C for 60 sec, repeated 40 times. TaqMan One-Step Master Mix and Gene Expression Assays for mouse CPT1A (Mm 00550438_m1), CPT2 (Mm 00487202_m1), and ACOX1 (Mm 00443579_m1) were purchased from Applied Biosystems (Life Technologies, Carlsbad, CA, USA). Triplicates of each sample were analyzed with ABI PRISM 7000 SDS software (Applied Biosystems) to determine ΔCt relative to a positive control (18S housekeeping gene). The fold change in the abundance of CPT1A, CPT2, and ACOX1 mRNAs was determined in primary mouse hepatocytes treated with albumin (40 μM) in the absence and presence of lipid synthesis inhibitors (C75, TOFA, 10 μg/mL) in glucose-free DMEM medium supplemented with 100 nM insulin, 10 nM dexamethasone, and either 6 or 20 mM glucose. The comparative 2^−ΔΔCt calculation method was used as described in User Bulletin 2, ABI Prism 7000 SDS (Applied Biosystems), and earlier. Finally, protein levels of liver fatty acid binding protein (L-FABP), sterol carrier protein-2 (SCP-2), acyl CoA binding protein (ACBP), peroxisome proliferator activated receptor (PPARα), liver X receptor-α (LXRα), carbohydrate response element binding protein (ChREBP), and sterol response element binding protein (SREBP) were determined by western blotting as described.

[2] = system: PPARα transcription of CPT1A, CPT2, ACOX1; assay: rtPCR of CPT1A, CPT2, ACOX1 mRNA in L-FABP (−/−) null mouse primary hepatocytes; type: cell-based; details: for PPARα transcription of CPT1A, CPT2, ACOX1 (mRNA): 6 mM glucose; for PPARα transcription of CPT1A, CPT2, ACOX1 (mRNA) / Ability to activate PPARα transcription of CPT1A, CPT2, ACOX1 (mRNA): inhibitor 10 μg/mL, 5 hr
Description: Wild-type mice on a C57BL/6N background purchased from Charles River Laboratories (Wilmington, MA, USA) were obtained from the National Cancer Institute (Frederick Cancer Research and Development Center, Frederick, MD, USA). L-FABP (−/−) null mice were obtained by targeted disruption of the L-FABP gene and backcrossed to C57Bl/6N background to the N10 (99.9% homogeneity) generation. For hepatocyte isolation, livers were collected from male mice aged 3–6 mo. Mouse protocols were approved by the Institutional Animal Care and Use Committee (IACUC) at Texas A&M University. Mice were kept under a constant 12/12 light-dark cycle and had access to food and water ad libitum.
as §2, §3

`CCCCCCCCCCCCCCOc1ccc(C(=O)O)o1` [TOFA, 5-tetradecyloxy-2-furancarboxylic acid] was tested, and the Ki (L-FABP; L-FABP 25 nM, NBD stearate 40 nM, 24°C, read-out: K i, displacing L-FABP-bound NBD-stearic acid) was 0.066 ± 0.003 µM, the “Fluorescence of L-FABP-bound NBD-stearic acid decreasing to” value (L-FABP; at 650 nM TOFA) was 40% and the Ki (SCP-2; SCP-2 25 nM, NBD stearate 40 nM, 24°C, read-out: K i, displacing SCP-2-bound NBD-stearic acid) was 0.227 ± 0.02 µM. For the same compound, the “Effect on L-FABP secondary structure (overall)” value (recombinant rat L-FABP) was “significantly altered”, the “Effect on proportion of all types of β-sheet of L-FABP” value (recombinant rat L-FABP) was “increased” and the “Effect on proportion of α-helix of L-FABP” value (recombinant rat L-FABP) was “did not alter”. For the same compound, the “Effect on turn structure of L-FABP” value (recombinant rat L-FABP) was “decreased”, the “Effect on unordered structure of L-FABP” value (recombinant rat L-FABP) was “did not alter” and the “PPARα transcription of CPT1A, CPT2, ACOX1 (mRNA)” value ([1]; 6 mM glucose) was “neither TOFA nor C75 significantly altered”. For the same compound, the “PPARα transcription of CPT1A, CPT2, ACOX1 (mRNA)” value ([1]; 20 mM glucose) was “induced”, the “PPARα transcription of CPT1A, CPT2, ACOX1 (mRNA)” value [2] was “lack of effect” and the “Decrease of PPARα transcription of CPT1A, CPT2, or ACOX1” value ([2]; 20 mM glucose, TOFA 10 μg/mL) was about 50%. The “Ability to activate PPARα transcription of CPT1A, CPT2, ACOX1 (mRNA)” value ([2]; 20 mM glucose) was “abolished”.

With `C=C1C(=O)OC(CCCCCCCC)C1C(=O)O` (stereo not drawn) [C75, 4-methylene-2-octyl-5-oxotetrahydrofuran-3-carboxylic acid] the “Displacement of NBD-stearic acid bound to L-FABP (in words)” value (L-FABP) was “weaker”, the “Displacement of NBD-stearic acid bound to SCP-2 (in words)” value (SCP-2) was “barely detectable” and the “K i, displacing SCP-2-bound NBD-stearic acid” value (SCP-2; SCP-2 25 nM, NBD stearate 40 nM, 24°C) was “not bound^(a)”. For the same compound, the “Effect on L-FABP secondary structure (overall)” value (recombinant rat L-FABP) was “did not alter”, the “PPARα transcription of CPT1A, CPT2, ACOX1 (mRNA)” value ([1]; 6 mM glucose) was “neither TOFA nor C75 significantly altered” and the “PPARα transcription of CPT1A, CPT2, ACOX1 (mRNA)” value ([1]; 20 mM glucose) was “induced”. For the same compound, the “PPARα transcription of CPT1A, CPT2, ACOX1 (mRNA)” value [2] was “lack of effect” and the “Ability to activate PPARα transcription of CPT1A, CPT2, ACOX1 (mRNA)” value ([2]; 20 mM glucose) was “abolished”.
